Measurements reported in patent US20060229322A1, “Anhydrous crystalline form of valacyclovir hydrochloride” (priority 2002, published 2006).
Structures can show the parent of a compound that is named as a salt.

Legend:
[1] = Storage stability of the anhydrous crystalline form at room temperature; type: physicochemical
Excerpt: (§1) Such stability is vital for a pharmaceutical since stocks thereof may be stored for long periods prior to use. […] The forms of the invention are therefore suitable for transport in countries where ambient temperatures are exceptionally high.

[2] = type: physicochemical
Excerpt: as §1

time shown to be stable [1]: over 3 years
time for which stability is exhibited when heated [2]: over 550 hours
SMILES: CC(C)[C@H](N)C(=O)OCCOCn1cnc2c(=O)[nH]c(N)nc21 [valacyclovir hydrochloride]
